{"source": "ChEMBL document CHEMBL4477208", "about": "“Discovery and Rational Design of Pteridin-7(8H)-one-Based Inhibitors Targeting FMS-like Tyrosine Kinase 3 (FLT3) and Its Mutants” (J Med Chem, 2016)", "key": {"[1]": {"biological_target": "T1, Receptor-type tyrosine-protein kinase FLT3 (Homo sapiens, UniProt P36888)", "T1 sequence (P36888 whole entry)": "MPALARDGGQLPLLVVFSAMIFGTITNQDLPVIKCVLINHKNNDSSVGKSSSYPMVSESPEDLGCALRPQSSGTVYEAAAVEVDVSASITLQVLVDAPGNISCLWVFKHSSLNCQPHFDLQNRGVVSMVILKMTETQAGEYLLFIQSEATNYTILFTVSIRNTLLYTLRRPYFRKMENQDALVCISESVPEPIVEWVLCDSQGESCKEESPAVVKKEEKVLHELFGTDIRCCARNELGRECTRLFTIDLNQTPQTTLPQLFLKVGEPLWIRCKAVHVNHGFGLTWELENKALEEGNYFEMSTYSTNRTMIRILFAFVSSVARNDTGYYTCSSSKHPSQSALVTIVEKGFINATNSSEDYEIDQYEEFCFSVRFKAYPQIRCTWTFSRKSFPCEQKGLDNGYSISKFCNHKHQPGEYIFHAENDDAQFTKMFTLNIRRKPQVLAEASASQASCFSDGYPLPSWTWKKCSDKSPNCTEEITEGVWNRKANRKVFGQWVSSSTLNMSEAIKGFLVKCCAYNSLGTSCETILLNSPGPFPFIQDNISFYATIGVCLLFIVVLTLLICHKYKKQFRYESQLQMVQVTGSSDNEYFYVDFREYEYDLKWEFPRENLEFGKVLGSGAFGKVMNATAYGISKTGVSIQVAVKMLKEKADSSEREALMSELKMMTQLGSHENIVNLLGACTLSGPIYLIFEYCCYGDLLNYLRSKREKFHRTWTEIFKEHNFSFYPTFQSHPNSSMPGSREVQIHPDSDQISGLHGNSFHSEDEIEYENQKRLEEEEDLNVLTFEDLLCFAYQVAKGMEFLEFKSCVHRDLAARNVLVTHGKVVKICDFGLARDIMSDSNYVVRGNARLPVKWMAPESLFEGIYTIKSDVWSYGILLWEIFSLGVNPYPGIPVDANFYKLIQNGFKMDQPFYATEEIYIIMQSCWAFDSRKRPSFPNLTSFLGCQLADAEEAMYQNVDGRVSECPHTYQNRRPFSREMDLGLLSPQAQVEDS", "description": "Inhibition of human N-terminal GST-tagged FLT3 (564 to 993 residues) expressed in baculovirus expression system using peptide FAM-P2 as substrate incubated for 10 mins followed by substrate addition by mobility shift assay"}, "[2]": {"tested_on": "MV4-11", "experiment": "Induction of apoptosis in human MV4-11 cells assessed as early apoptotic cells at 1000 nM after 48 hrs by annexin V/propidium iodide staining based FACS analysis (reference value: 6.31%)", "type": "functional"}, "[3]": {"tested_on": "SH-SY5Y", "experiment": "Antiproliferative activity against human SH-SY5Y cells after 72 hrs by SRB assay", "type": "functional, cell-based"}, "[4]": {"tested_on": "MV4-11", "experiment": "Cell cycle arrest in human MV4-11 cells assessed as accumulation at subG1 phase after 48 hrs by PI/RNase staining based FACS analysis", "type": "functional"}, "[5]": {"biological_target": "Platelet-derived growth factor receptor beta (Homo sapiens) (UniProt P09619)", "sequence (P09619 whole entry)": "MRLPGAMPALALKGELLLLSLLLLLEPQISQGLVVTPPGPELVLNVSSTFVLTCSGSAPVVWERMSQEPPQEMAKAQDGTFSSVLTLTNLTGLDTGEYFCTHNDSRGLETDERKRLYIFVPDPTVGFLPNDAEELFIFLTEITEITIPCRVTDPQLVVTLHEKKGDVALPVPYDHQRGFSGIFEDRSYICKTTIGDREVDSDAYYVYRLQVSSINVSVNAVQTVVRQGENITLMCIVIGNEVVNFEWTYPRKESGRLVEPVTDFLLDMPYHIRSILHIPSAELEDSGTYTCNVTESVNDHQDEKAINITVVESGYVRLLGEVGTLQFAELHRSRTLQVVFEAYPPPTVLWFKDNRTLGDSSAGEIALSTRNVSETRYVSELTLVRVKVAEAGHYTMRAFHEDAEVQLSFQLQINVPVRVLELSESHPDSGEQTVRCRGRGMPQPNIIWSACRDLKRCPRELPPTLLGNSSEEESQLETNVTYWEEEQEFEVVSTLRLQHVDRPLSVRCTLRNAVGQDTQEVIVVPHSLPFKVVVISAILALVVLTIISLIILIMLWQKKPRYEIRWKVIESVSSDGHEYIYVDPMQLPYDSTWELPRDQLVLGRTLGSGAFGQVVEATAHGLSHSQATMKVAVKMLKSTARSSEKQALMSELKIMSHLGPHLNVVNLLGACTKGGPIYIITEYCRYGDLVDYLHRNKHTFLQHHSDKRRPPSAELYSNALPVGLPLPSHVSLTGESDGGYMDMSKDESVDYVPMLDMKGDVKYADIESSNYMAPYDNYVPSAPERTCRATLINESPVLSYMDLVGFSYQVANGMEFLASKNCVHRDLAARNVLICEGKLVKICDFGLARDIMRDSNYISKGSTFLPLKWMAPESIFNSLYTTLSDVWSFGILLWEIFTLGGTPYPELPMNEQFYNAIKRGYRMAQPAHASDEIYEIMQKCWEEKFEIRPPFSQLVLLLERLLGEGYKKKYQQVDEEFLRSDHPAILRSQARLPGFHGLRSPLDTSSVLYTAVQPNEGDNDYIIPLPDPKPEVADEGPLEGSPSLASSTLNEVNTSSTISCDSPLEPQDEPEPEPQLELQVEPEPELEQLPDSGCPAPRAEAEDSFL", "experiment": "Inhibition of human PDGFRB expressed in bacterial system assessed as remaining enzyme activity at 1 uM relative to untreated control"}, "[6]": {"tested_on": "MV4-11", "experiment": "Induction of apoptosis in human MV4-11 cells assessed as apoptotic cells after 48 hrs by annexin V/propidium iodide staining based FACS analysis", "type": "functional, cell-based"}, "[7]": {"tested_on": "NCI-H209", "experiment": "Antiproliferative activity against human H209 cells after 72 hrs by MTT assay", "type": "functional, cell-based", "details": "NCI-H209, 72 h"}, "[8]": {"tested_on": "MV4-11", "experiment": "Cell cycle arrest in human MV4-11 cells assessed as accumulation at G0/G1 phase at 100 nM after 48 hrs by PI/RNase staining based FACS analysis (reference value: 69.55%)", "type": "functional"}, "[9]": {"tested_on": "MV4-11", "experiment": "Induction of apoptosis in human MV4-11 cells assessed as late apoptotic cells at 10 nM after 48 hrs by annexin V/propidium iodide staining based FACS analysis (reference value: 3.01%)", "type": "functional"}, "[10]": {"experiment": "Half life in overnight fasted Sprague-Dawley rat plasma at 10 mg/kg administered via oral gavage up to 24 hrs by LC-MS/MS analysis", "type": "ADME, organism-based"}, "[11]": {"tested_on": "NCI-H1299", "experiment": "Antiproliferative activity against human H1299 cells after 72 hrs by SRB assay", "type": "functional, cell-based", "details": "NCI-H1299, 72 h"}, "[12]": {"tested_on": "MV4-11", "experiment": "Cell cycle arrest in human MV4-11 cells assessed as accumulation at G0/G1 phase at 1 nM after 48 hrs by PI/RNase staining based FACS analysis (reference value: 69.55%)", "type": "functional"}, "[13]": {"tested_on": "MOLM-13", "experiment": "Antiproliferative activity against human MOLM13 cells harboring FLT3-ITD mutant after 72 hrs by MTT assay", "type": "functional, cell-based", "details": "MOLM-13, 72 h"}}}
{"smiles": "Cc1cc(Nc2ncc3ncc(=O)n(-c4ccc(N)cc4)c3n2)ccc1N1CCN(C)CC1", "values": [{"measurement": "IC50", "setting": "[1]", "value": 0.00156, "unit": "µM"}, {"measurement": "Activity", "setting": "[2]", "value": 38.4, "unit": "%"}, {"measurement": "IC50", "setting": "[3]", "value": 5.57, "unit": "µM"}, {"measurement": "Activity", "setting": "[4]", "value": "Dose-dependent effect"}, {"measurement": "Activity", "setting": "[5]", "value": "< 1", "unit": "%"}, {"measurement": "Activity", "setting": "[6]", "value": "Dose-dependent effect"}, {"measurement": "IC50", "setting": "[7]", "value": "> 10", "unit": "µM"}, {"measurement": "Activity", "setting": "[8]", "value": 85.92, "unit": "%"}, {"measurement": "Activity", "setting": "[9]", "value": 3.34, "unit": "%"}, {"measurement": "half-life", "setting": "[10]", "value": 4.49, "unit": "h"}, {"measurement": "IC50", "setting": "[11]", "value": 4.88, "unit": "µM"}, {"measurement": "Activity", "setting": "[12]", "value": 65.64, "unit": "%"}, {"measurement": "IC50", "setting": "[13]", "value": 0.0329, "unit": "µM"}]}
